8 compounds from ChEMBL document CHEMBL1201862, “PubChem BioAssay data set” (2004) can be followed below.

Test systems include IGROV-1; SK-MEL-28; LOX IMVI; UO-31; U-251; NCI-H23; SF-268; RPMI-8226; SNB-19; HCC 2998; MDA-MB-231; HL-60; ACHN; CAKI-1; Malme-3M; KM12; SNB-75; MDA-N; MCF7.
Assay in all cases: DTP human tumour cell line panel, 48 h

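Cells were grown in 96-well plates and exposed to each compound for 48 hours at five concentrations; endpoints were interpolated linearly between bracketing concentrations, or set to the highest concentration if not reached. GI50: concentration for 50% inhibition of growth.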 The source made the active and inactive calls. Rule as the data show it: active = GI50 up to about 1.1 µM and inactive = higher.

With `O=[N+]([O-])c1ccc(/C=C/c2cc(-c3ccccc3)nc3ccc4ccccc4c23)cc1`, the GI50 in the test with IGROV-1, with SK-MEL-28, in the test on LOX IMVI, with UO-31, with U-251 and in the test on NCI-H23 was > 100 µM (inactive) each time. The GI50 with SF-268, in the test with RPMI-8226, in the test with SNB-19, with HCC 2998, with MDA-MB-231 and with HL-60 was > 100 µM (inactive) each time. The GI50 – broadly, the concentration that inhibits growth by half – is > 100 µM (inactive) with ACHN; > 100 µM (inactive) with CAKI-1; > 100 µM (inactive) in the test with Malme-3M; > 100 µM (inactive) with KM12; 16.9 µM (inactive) in the test on SNB-75; > 100 µM (inactive) with MDA-N. In the test on MCF7, the GI50 is 57 µM (inactive).

`CN1C(=O)C2(Cc3cn(C45CC67SSC(CO)(C(=O)N6C4Nc4ccccc45)N(C)C7=O)c4ccccc34)SSC1(CO)C(=O)N2C` (stereo unspecified): the 50% growth inhibitory concentration (GI50) in the test on IGROV-1 is 0.0165 µM (active); with SK-MEL-28, 0.084 µM (active); in the test on LOX IMVI, 0.0114 µM (active); in the test on UO-31 it was 0.0335 µM (active); in the test on U-251 it was 0.0369 µM (active); in the test with NCI-H23, < 0.01 µM (active). In addition, the GI50 was 0.0191 µM (active) in the test on SF-268; 0.0139 µM (active) with RPMI-8226; 0.271 µM (active) with SNB-19; 0.0229 µM (active) with HCC 2998; 0.0133 µM (active) in the test on MDA-MB-231; 0.013 µM (active) in the test with HL-60. Moreover, the GI50 in the test on ACHN was < 0.01 µM (active); in the test with CAKI-1, < 0.01 µM (active); with Malme-3M, < 0.01 µM (active); in the test with KM12, 0.139 µM (active); in the test with SNB-75 it was 0.0423 µM (active); with MDA-N, 0.0198 µM (active). Moreover, the GI50 in the test on MCF7 is < 0.01 µM (active).

Regarding `Fc1ccc(NCn2nc(COc3ccccc3Cl)n(/N=C/c3ccc(-c4ccc(Cl)cc4Cl)o3)c2=S)cc1Cl`, the GI50 in the test with IGROV-1 is 29.2 µM (inactive); in the test with SK-MEL-28, > 100 µM (inactive); in the test with LOX IMVI it was 23.9 µM (inactive); in the test on UO-31 it was 32.9 µM (inactive); in the test with U-251, 25.8 µM (inactive); in the test on NCI-H23, 27.4 µM (inactive). In addition, the GI50 in the test with SF-268 was 79.1 µM (inactive); in the test on RPMI-8226, 22.3 µM (inactive); with MDA-MB-231, 44.4 µM (inactive); in the test on HL-60 it was 15.8 µM (inactive); in the test on ACHN, 29.5 µM (inactive); in the test on CAKI-1, 34.4 µM (inactive). For the same compound, the results for the GI50 in the test with KM12, in the test on MDA-N and with MCF7 were 26 µM (inactive), 38.5 µM (inactive) and 26.7 µM (inactive), respectively.

For `O=C1CCN/C(=N\C(=O)C(F)(F)F)N1CCc1c[nH]c2ccccc12`, the GI50 in the test with IGROV-1, in the test on SK-MEL-28, with LOX IMVI, in the test with UO-31, in the test on U-251 and with NCI-H23 was > 100 µM (inactive) in each case. Also, the GI50 with SF-268, in the test on RPMI-8226, in the test with SNB-19, in the test with HCC 2998, in the test with MDA-MB-231 and in the test with HL-60 was > 100 µM (inactive) in each case. Further, the GI50 in the test on ACHN, in the test with CAKI-1, in the test with Malme-3M, with KM12, in the test with MDA-N and with MCF7 was > 100 µM (inactive) throughout.

As for `Cc1ccc(NC(=O)CSC(N)=O)cc1C`, the GI50 is > 100 µM (inactive) in the test on IGROV-1; > 100 µM (inactive) with SK-MEL-28; 37.9 µM (inactive) with LOX IMVI; > 100 µM (inactive) in the test on UO-31; > 100 µM (inactive) in the test on U-251; > 100 µM (inactive) in the test on NCI-H23. Further, the GI50 with SF-268 is > 100 µM (inactive); with RPMI-8226 it was 29.3 µM (inactive); in the test on SNB-19, > 100 µM (inactive); in the test with HCC 2998, > 100 µM (inactive); with MDA-MB-231 it was > 100 µM (inactive); in the test with HL-60 it was > 100 µM (inactive). The GI50 in the test on ACHN is > 100 µM (inactive); with CAKI-1, > 100 µM (inactive); in the test with Malme-3M, > 100 µM (inactive); in the test with KM12 it was > 100 µM (inactive); in the test on SNB-75, > 100 µM (inactive); in the test with MCF7, 31 µM (inactive).

Take `CC(=O)OCC1OC(n2c3c(c(-c4cccc5ccccc45)c(C#N)c2=S)CCCC3)C(OC(C)=O)C(OC(C)=O)C1OC(C)=O` (stereo unspecified): the GI50 in the test on IGROV-1 is > 100 µM (inactive); in the test on SK-MEL-28 it was > 100 µM (inactive); in the test on LOX IMVI it was > 100 µM (inactive); with UO-31, 31.3 µM (inactive); in the test with U-251 it was > 100 µM (inactive); in the test with NCI-H23, > 100 µM (inactive). In addition, the GI50 in the test on SF-268, in the test with SNB-19, with HCC 2998, in the test with MDA-MB-231, in the test on HL-60 and in the test on ACHN was > 100 µM (inactive) throughout. Further, the GI50 in the test with Malme-3M, in the test with KM12, in the test on MDA-N and in the test on MCF7 was > 100 µM (inactive) throughout.

Take `COc1cc(C2c3cc4c(cc3[C@@H](Nc3ccccc3)C3COC[C@H]23)OCO4)cc(OC)c1O` (stereo partly specified): the GI50 in the test with IGROV-1 is 8.34 µM (inactive); with SK-MEL-28, 5.77 µM (inactive); in the test with UO-31, 1.15 µM (inactive); in the test on U-251, 0.897 µM (active); in the test on SF-268, 3.03 µM (inactive); in the test with RPMI-8226, 0.631 µM (active). The GI50 with SNB-19 is 1.69 µM (inactive); in the test with HCC 2998, 5.83 µM (inactive); in the test on MDA-MB-231 it was 1.64 µM (inactive); in the test on HL-60, 0.573 µM (active); in the test on ACHN it was 0.483 µM (active); in the test with KM12, 2.84 µM (inactive). Besides, the GI50 in the test with SNB-75 was 2.23 µM (inactive); in the test on MDA-N it was 7.35 µM (inactive); with MCF7 it was 0.512 µM (active).

Consider `CSC[S+]([O-])C[C@H](CO)NC(=O)/C=C/c1c(C)[nH]c(=O)[nH]c1=O` (stereo partly specified), for which the GI50 was 0.614 µM (active) in the test with IGROV-1; 0.767 µM (active) with SK-MEL-28; 1.11 µM (active) in the test on LOX IMVI; 1.61 µM (inactive) in the test on UO-31; 0.644 µM (active) with NCI-H23; 0.277 µM (active) with SF-268. Further, the GI50 with RPMI-8226 is 1.79 µM (inactive); in the test with SNB-19, 0.52 µM (active); with HCC 2998, 1.45 µM (inactive); with HL-60 it was 1.2 µM (inactive); with ACHN, 1.48 µM (inactive); in the test on CAKI-1 it was 1.65 µM (inactive). Besides, the concentration for 50% growth inhibition (GI50) in the test with Malme-3M was 0.492 µM (active); in the test with KM12 it was 1.34 µM (inactive); in the test with SNB-75, 0.236 µM (active); in the test with MCF7 it was 1.8 µM (inactive).
